Reference: patent US8999974B2, “Acyl piperazine derivatives as TTX-S blockers” (Raqualia Pharma Inc., priority 2010, dated 2015)

Key:
human Nav1.7 = biological target: T1, human Nav1.7 (Homo sapiens, UniProt Q15858); assay: FRET assay (EFS, FDSS) on CHO cells expressing human NaV1.7 channels; format: cell-based; conditions: FRET assay, CHO cells expressing human NaV1.7; read-out: IC50 against Nav1.7
T1 construct: expressed in transfected cells; host or cells: CHO
Protocol: (§1) This screen was used to determine the effects of compounds on human NaV1.3, human Nav1.7, and human Nav1.5 channels, utilising electrical field stimulation (EFS) system in 96-well plate format on FDSS (Hamamatsu Photonics) platform. The change of membrane potential was monitored with FRET dye pair, oxonol (DiSBAC2(3)) and coumarin (CC2-DMPE).
CHO cells expressing human NaV1.7 channels were grown in T225 flasks, in a 5% CO2 humidified incubator to about 80% confluence. Media composition consisted of HAM/F12 with Glutamax I, 10% FCS, 100 units/ml Penicillin and 100 microgram/ml Hygromycin.
(§2) Protocol: • Seeded each cell lines (1×10^5 cells/well) into poly-D-lysine coated 96-well plates prior to experimentation. • Incubated at 37° C. in 5% CO2 for 24 hours. • Washed each well with assay buffer (140 mM NaCl, 4.5 mM KCl, 10 mM D-Glucose, 2 mM CaCl2, 1 mM MgCl2, 10 mM HEPES, pH 7.4 adjusted with NaOH) twice. • Added 1st loading solution containing 10 microM CC2-DMPE and 0.06% Pluronic F-127 in assay buffer. • Incubated the plate at room temperature in dark for 1 hour. • Removed 1st loading solution and added 2nd loading solution containing 15 microM DiSBAC2(3), 0.555 mM VABSC-1 and 0.004% Pluronic F-127 in assay buffer. • Placed the plate under the dark at room temperature for 25 minutes. • Added compound solutions into the assay plate. • Set the assay plate in FDSS and placed an EFS device on the plate. • Measured EFS-induced fluorescent response by FDSS.
(§3) The data were analyzed and reported as normalized ratios of intensities measured at […]. The process of calculating these ratios was performed as follows:
(§4) [formula] This analysis was performed using a computerized specific program designed for FDSS generated data. Fluorescence ratio values were plotted using XLfit to determine an IC50 value for each compound.

human NaV1.3 = biological target: T2, human NaV1.3 (Homo sapiens, UniProt Q9NY46); assay: FRET assay (EFS, FDSS) on HEK293 cells expressing human NaV1.3 channels; format: cell-based; conditions: FRET assay, HEK293 cells expressing human NaV1.3; read-out: IC50 against Nav1.3
T2 construct: expressed in transfected cells; host or cells: HEK293
T2 sequence (Q9NY46 whole entry): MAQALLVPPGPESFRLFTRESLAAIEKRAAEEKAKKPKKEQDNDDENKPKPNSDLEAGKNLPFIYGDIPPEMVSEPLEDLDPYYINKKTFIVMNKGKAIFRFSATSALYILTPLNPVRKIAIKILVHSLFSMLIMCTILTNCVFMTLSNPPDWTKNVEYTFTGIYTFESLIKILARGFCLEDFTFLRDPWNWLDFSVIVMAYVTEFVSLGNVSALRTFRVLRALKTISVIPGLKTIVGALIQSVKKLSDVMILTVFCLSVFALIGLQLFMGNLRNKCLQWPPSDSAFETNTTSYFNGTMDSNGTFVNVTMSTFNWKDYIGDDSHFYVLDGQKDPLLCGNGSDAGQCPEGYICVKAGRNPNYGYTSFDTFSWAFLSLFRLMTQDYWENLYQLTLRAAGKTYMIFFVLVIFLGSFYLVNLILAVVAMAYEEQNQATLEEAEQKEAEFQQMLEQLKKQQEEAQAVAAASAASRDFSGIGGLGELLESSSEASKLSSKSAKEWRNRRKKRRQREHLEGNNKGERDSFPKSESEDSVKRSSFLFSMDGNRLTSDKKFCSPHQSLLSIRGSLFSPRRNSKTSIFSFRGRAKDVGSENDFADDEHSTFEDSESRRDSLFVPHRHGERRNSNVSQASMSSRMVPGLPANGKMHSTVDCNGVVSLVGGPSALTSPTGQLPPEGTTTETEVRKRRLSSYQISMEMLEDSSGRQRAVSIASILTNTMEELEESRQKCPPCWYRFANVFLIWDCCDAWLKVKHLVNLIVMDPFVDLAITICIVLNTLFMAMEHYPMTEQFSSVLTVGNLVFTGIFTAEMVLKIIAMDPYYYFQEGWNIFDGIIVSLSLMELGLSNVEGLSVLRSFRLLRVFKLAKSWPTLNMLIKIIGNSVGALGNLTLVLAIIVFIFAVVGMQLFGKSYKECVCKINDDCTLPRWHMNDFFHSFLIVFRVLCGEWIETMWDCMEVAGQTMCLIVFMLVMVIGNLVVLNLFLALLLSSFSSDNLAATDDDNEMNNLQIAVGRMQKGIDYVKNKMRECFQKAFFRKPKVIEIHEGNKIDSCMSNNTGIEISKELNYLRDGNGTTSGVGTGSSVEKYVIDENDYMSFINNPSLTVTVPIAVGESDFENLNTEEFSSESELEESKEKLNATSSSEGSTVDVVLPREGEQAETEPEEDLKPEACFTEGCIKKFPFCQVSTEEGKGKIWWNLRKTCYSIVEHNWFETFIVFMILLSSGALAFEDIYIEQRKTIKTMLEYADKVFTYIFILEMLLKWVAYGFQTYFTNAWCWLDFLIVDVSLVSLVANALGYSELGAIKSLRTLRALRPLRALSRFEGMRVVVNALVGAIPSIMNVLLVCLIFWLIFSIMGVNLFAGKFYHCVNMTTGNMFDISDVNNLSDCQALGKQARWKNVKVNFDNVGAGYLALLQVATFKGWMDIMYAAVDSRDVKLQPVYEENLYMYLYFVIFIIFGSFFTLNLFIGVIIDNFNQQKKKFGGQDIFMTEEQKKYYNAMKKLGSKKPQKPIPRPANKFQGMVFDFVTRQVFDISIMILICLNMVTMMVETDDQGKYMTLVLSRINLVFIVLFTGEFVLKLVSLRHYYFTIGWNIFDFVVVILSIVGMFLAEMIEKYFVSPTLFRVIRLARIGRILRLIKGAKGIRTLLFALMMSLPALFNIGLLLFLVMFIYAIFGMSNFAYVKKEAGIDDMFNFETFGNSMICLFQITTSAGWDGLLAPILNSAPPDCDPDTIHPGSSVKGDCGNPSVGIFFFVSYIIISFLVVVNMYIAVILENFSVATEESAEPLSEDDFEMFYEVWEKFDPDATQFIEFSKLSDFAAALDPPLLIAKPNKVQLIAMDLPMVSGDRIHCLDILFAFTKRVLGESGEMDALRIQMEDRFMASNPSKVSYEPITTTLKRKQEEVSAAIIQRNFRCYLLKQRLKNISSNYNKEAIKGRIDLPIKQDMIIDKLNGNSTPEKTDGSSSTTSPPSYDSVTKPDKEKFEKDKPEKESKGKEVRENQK
Protocol: as §1
Each HEK293 cells expressing human NaV1.3 channels and HEK293 cells expressing human NaV1.5 channels were grown in T225 flasks, in a 5% CO2 humidified incubator to about 80% confluence. Media composition consisted of Dulbecco's Modified Eagle Medium (high glucose), 10% FCS, 100 units/ml Penicillin, 100 microgram/ml Streptomycin and 500 microgram/ml Geneticine.
as §2, §3, §4

T1 sequence (Q15858 whole entry): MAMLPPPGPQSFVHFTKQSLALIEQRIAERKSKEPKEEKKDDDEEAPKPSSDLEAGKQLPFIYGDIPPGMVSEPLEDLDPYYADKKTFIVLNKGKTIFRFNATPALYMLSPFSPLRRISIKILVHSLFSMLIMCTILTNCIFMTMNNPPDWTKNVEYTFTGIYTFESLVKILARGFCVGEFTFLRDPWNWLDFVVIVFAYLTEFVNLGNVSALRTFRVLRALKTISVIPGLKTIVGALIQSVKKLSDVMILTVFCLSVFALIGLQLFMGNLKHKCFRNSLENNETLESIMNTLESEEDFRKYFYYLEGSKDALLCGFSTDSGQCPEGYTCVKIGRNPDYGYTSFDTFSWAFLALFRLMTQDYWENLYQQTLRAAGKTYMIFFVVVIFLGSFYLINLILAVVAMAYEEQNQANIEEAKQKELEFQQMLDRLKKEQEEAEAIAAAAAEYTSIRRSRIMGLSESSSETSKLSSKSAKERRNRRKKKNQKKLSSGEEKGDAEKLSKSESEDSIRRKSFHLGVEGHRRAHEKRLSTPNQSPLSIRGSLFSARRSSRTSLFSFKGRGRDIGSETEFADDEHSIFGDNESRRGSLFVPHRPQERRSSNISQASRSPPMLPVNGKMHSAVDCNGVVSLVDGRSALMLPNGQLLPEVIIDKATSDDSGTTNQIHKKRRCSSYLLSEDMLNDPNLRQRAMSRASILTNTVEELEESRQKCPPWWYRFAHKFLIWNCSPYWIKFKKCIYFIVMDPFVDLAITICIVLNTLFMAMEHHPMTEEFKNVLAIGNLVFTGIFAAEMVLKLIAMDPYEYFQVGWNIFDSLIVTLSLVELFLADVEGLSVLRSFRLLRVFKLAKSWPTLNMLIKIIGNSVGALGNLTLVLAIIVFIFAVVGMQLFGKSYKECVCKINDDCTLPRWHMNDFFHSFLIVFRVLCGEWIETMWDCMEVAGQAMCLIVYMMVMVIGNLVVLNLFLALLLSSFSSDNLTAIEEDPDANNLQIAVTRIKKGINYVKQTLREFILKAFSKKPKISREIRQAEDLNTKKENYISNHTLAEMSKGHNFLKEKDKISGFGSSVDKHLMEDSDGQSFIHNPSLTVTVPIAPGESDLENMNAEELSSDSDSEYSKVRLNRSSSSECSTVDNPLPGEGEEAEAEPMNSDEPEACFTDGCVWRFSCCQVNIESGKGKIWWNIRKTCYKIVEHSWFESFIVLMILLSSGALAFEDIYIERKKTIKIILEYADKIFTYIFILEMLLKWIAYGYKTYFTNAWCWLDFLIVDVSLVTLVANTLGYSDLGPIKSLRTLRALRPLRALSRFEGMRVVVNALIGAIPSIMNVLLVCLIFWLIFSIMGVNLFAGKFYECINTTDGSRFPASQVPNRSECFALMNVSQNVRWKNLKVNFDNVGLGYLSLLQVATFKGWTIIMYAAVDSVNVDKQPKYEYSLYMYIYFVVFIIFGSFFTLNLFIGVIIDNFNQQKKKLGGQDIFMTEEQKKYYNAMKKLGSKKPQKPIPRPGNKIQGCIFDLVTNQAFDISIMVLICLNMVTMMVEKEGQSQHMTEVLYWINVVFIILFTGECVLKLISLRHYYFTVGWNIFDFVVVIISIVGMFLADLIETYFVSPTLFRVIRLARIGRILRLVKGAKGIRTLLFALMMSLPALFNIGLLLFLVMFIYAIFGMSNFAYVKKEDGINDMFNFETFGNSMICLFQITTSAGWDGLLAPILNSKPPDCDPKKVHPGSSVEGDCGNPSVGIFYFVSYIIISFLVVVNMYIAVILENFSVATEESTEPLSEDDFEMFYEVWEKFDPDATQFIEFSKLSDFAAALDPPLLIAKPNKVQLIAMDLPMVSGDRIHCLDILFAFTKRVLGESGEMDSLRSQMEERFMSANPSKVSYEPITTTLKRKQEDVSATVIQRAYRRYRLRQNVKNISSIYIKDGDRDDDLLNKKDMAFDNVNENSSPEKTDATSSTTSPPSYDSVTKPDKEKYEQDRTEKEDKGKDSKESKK

Compound	IC50 (human Nav1.7) [µM]	IC50 (human NaV1.3) [µM]
Cc1ccc(C(=O)N2CCN(c3cc(OCC(F)(F)F)ncn3)CC2)cc1F [Example 8, 3-(fluoro-4-methylphenyl)(4-(6-(2,2,2-trifluoroethoxy)pyrimidin-4-yl)piperazin-1-yl)methanone]	< 3	
CC(C)COc1cc(N2CCN(C(=O)[C@@H](NC(=O)OC(C)(C)C)c3ccccc3)CC2)ncn1 [Example 10, (S)-tert-butyl (2-(4-(6-isobutoxypyrimidin-4-yl)piperazin-1-yl)-2-oxo-1-phenylethyl)carbamate]	< 3	
CC(C)COc1cc(N2CCN(C(=O)[C@@H](N)c3ccccc3)CC2)ncn1 [Example 27, (S)-2-amino-1-(4-(6-isobutoxypyrimidin-4-yl)piperazin-1-yl)-2-phenylethanone]	< 3	
CC(C)COc1cc(N2CCN(C(=O)c3ccc4cccc(O)c4n3)CC2)ncn1 [Example 32, (8-hydroxyquinolin-2-yl)(4-(6-isobutoxypyrimidin-4-yl)piperazin-1-yl)methanone]	< 3	
CC(C)COc1cc(N2CCN(C(=O)c3ccc(Cl)c(F)c3)CC2)ncn1 [Example 39, (4-chloro-3-fluorophenyl)(4-(6-isobutoxypyrimidin-4-yl)piperazin-1-yl)methanone]	< 3	
CC(C)Oc1cc(N2CCN(C(=O)c3nn(C)c4ccc(F)cc34)CC2)ncn1 [Example 210, (5-fluoro-1-methyl-1H-indazol-3-yl)(4-(6-isopropoxypyrimidin-4-yl)piperazin-1-yl)methanone]		< 3
CC(C)COc1cc(N2CCN(C(=O)c3ccc(-n4cccn4)nc3)CC2)ncn1 [Example 214, (6-(1H-pyrazol-1-yl)pyridin-3-yl)(4-(6-isobutoxypyrimidin-4-yl)piperazin-1-yl)methanone]		< 3
CC(C)COc1cc(N2CCN(C(=O)c3cnn(-c4ccccc4)c3)CC2)ncn1 [Example 215, (4-(6-isobutoxypyrimidin-4-yl)piperazin-1-yl)(1-phenyl-1H-pyrazol-4-yl)methanone]		< 3
CCn1nc(C(F)(F)F)cc1C(=O)N1CCN(c2cc(OCC(C)C)ncn2)CC1 [Example 217, (1-ethyl-3-(trifluoromethyl)-1H-pyrazol-5-yl)(4-(6-isobutoxypyrimidin-4-yl)piperazin-1-yl)methanone]		< 3
Cc1c(C(=O)N2CCN(c3cc(OC4CCC4)ncn3)CC2)nnn1-c1ccccc1 [Example 219, (4-(6-cyclobutoxypyrimidin-4-yl)piperazin-1-yl)(5-methyl-1-phenyl-1H-1,2,3-triazol-4-yl)methanone]		< 3
O=C(Cn1nc2ccccc2n1)N1CCN(c2cc(OC3CCC3)ncn2)CC1 [Example 220, 2-(2H-benzo[d][1,2,3]triazol-2-yl)-1-(4-(6-cyclobutoxypyrimidin-4-yl)piperazin-1-yl)ethanone]		< 3
CCn1nc(C(=O)N2CCN(c3cc(OCC(C)C)ncn3)CC2)cc1C(F)(F)F [Example 228, (1-ethyl-5-(trifluoromethyl)-1H-pyrazol-3-yl)(4-(6-isobutoxypyrimidin-4-yl)piperazin-1-yl)methanone]		< 3
CCOc1cccc(C(=O)N2CCN(c3cc(OCC(C)C)ncn3)CC2)n1 [Example 231, (6-ethoxypyridin-2-yl)(4-(6-isobutoxypyrimidn-4-yl)piperazin-1-yl)methanone]		< 3
CC(C)COc1cc(N2CCN(C(=O)c3cccc(OCC(F)(F)F)n3)CC2)ncn1 [Example 232, (4-(6-isobutoxypyrimidin-4-yl)piperazin-1-yl)(6-(2,2,2-trifluoroethoxy)pyridin-2-yl)methanone]		< 3
CC(C)COc1cc(N2CCN(C(=O)c3csc(C(C)C)n3)CC2)ncn1 [Example 233, (4-(6-isobutoxypyrimidin-4-yl)piperazin-1-yl)(2-isopropylthiazol-4-yl)methanone]		< 3
CCOc1cc(N2CCN(C(=O)c3csc(-c4ccccn4)n3)CC2)ncn1 [Example 241, (4-(6-ethoxypyrimidin-4-yl)piperazin-1-yl)(2-(pyridin-2-yl)thiazol-4-yl)methanone]		< 3
